Structures are written as SMILES.

The subject of one assay is UGT1A1. Kind of assay: Expression level of UGT1A1 in rat liver by UHPLC-MS/MS. It counts as in vivo. As to the method: Male Sprague Dawley rats (230 ± 20 g, 6–8 weeks of age) were purchased from B&K Laboratory Animal, Corp. Ltd. (Shanghai, China) and fed in the Laboratory Animal Center of Shanghai University of Traditional Chinese Medicine. All rats were allowed to acclimatize for 3 days before experimentation. The rats were randomly divided into six groups (n = 5 for each group). […] Moreover, groups 1 and 2 were intragastrically treated with physiological saline (0.9%) at a dose of 1 mL/100 g. […] At the end of the experiment, all rats were euthanized by CO2 inhalation. The serum samples were stored at -70°C until analysis, and liver samples were isolated and stored at -70°C for further analysis, whereas the central part of the right large lobe of the liver was used for histological examination.
Biotransformation of xenobiotics and endogenous compounds is a crucial step in the absorption and elimination of potentially harmful substances from the human body, a process that could be affected by the levels of pharmacokinetic enzymes and transporter proteins. […]
Total membrane protein was isolated (in triplicate) from liver tissue according to the Native Membrane Protein Extraction Kit protocol. Subsequently, protein concentrations were determined by applying the BCA Protein Assay Kit. […]

In another assay the test system is MATE1. The assay can be described thus: Expression level of MATE1 in rat liver by UHPLC-MS/MS. The format is in vivo. The source says: Male Sprague Dawley rats (230 ± 20 g, 6–8 weeks of age) were purchased from B&K Laboratory Animal, Corp. Ltd. (Shanghai, China) and fed in the Laboratory Animal Center of Shanghai University of Traditional Chinese Medicine. All rats were allowed to acclimatize for 3 days before experimentation. The rats were randomly divided into six groups (n = 5 for each group). […]
Biotransformation of xenobiotics and endogenous compounds is a crucial step in the absorption and elimination of potentially harmful substances from the human body, a process that could be affected by the levels of pharmacokinetic enzymes and transporter proteins. […] Previous methods of protein quantification are immunological, such as immunoblotting ([Zhang et al., 2016]), […] and two-dimensional electrophoresis ([Bruschi et al., 2015]). […] A milestone in quantitative protein analysis was the introduction of mass spectrometry-based analysis using shotgun proteomic assays with relative protein quantification, which has advantages in terms of absolute accuracy, stability, operability, and efficiency over traditional quantitative methods ([Wang et al., 2015]). […]

[1] abbreviates: UDCA group, ANIT-treated rats, mean ± S.D.

As to `C[C@H](CCC(=O)O)[C@H]1CC[C@H]2[C@@H]3[C@@H](O)C[C@@H]4C[C@H](O)CC[C@]4(C)[C@H]3CC[C@]12C` [UDCA, Ursodeoxycholic acid], the “Ugt1a1 expression level in rat liver” value with UGT1A1 (setting [1]) stood at 6.06±1.34 fmol/μg protein. Moreover, the “UGT1A1 level, fold higher” value in the assay on UGT1A1 (UDCA-treated cholestatic rats, liver, as compared with the control group, p < 0.01) is given as 2.1 fold. Also, the “Mate1 expression level in rat liver” value in the assay with MATE1 (setting [1]) came to 3.43±1.38 fmol/μg protein. Further, the “MATE1 expression upregulated, fold” value in the assay with MATE1 (UDCA-treated cholestatic rats, liver, not statistically significant) is listed as 1.7 fold.

These data come from article PMC5962729 (Frontiers in Pharmacology, 2018).
